Assay results as given in ChEMBL document CHEMBL3885861, “Open TG-GATES”.

Species: Rattus norvegicus
Assay: Open TG-GATES - Regimen: Single
Format: toxicity, organism-based, Sprague-Dawley
Parameters: regimen Single, gender Male, age 6 weeks
Conditions: in vivo, ip, route intraperitoneal injection; for APTT / Bas / Eos / Fbg / Hb / Lym / MCH / MCHC / Mono / Neu / PT / Plat / RBC / Ret / WBC / Ht / MCV: tissue Blood; for KIDNEY_L / KIDNEY_R / KIDNEY_TOTAL: tissue Kidney; for LIVER: tissue Liver; for ALP / ALT / AST / BUN / CRE / Ca / DBIL / GLC / IP / K / LDH / PL / RALB / TBIL / TC / TG / TP / gamma-GTP / Na: tissue Plasma
[1] = 0.3 mg/kg, 3 h, dose 300 ug/Kg, dose level Middle
[2] = 0.3 mg/kg, 6 h, dose 300 ug/Kg, dose level Middle
[3] = 0.3 mg/kg, 9 h, dose 300 ug/Kg, dose level Middle
[4] = 0.3 mg/kg, 24 h, dose 300 ug/Kg, dose level Middle
[5] = 3 mg/kg, 3 h, dose 3000 ug/Kg, dose level High
[6] = 3 mg/kg, 6 h, dose 3000 ug/Kg, dose level High
[7] = 3 mg/kg, 9 h, dose 3000 ug/Kg, dose level High
[8] = 3 mg/kg, 24 h, dose 3000 ug/Kg, dose level High

LPS
APTT [1]: 22.5 s
Bas [1]: 0%
Eos [1]: 0.3%
Fbg [1]: 152.7 mg/dL
Hb [1]: 13.6 g/dL
Lym [1]: 75%
MCH [1]: 21.8 pg
MCHC [1]: 32.9%
Mono [1]: 0.7%
Neu [1]: 24%
PT [1]: 17.9 s
Plat [1]: 65.5 x10_4/uL
RBC [1]: 625.3 x10_4/ul
Ret [1]: 9.1%
WBC [1]: 24.9 x10_2/uL
KIDNEY_L [1]: 1 g
KIDNEY_R [1]: 1 g
KIDNEY_TOTAL [1]: 2 g
LIVER [1]: 8.6 g
ALP [1]: 1337.3 IU/L
ALT [1]: 67.3 IU/L
AST [1]: 171 IU/L
BUN [1]: 12.7 mg/dL
CRE [1]: 0.2 mg/dL
Ca [1]: 9.7 mg/dL
DBIL [1]: 0.0533 mg/dL
GLC [1]: 138.7 mg/dL
IP [1]: 9.3 mg/dL
K [1]: 3.9 meq/L
LDH [1]: 487.3 IU/L
PL [1]: 134 mg/dL
RALB [1]: 2.2 g/dL
TBIL [1]: 0.2 mg/dL
TC [1]: 68.3 mg/dL
TG [1]: 96 mg/dL
TP [1]: 5 g/dL
gamma-GTP [1]: 1 IU/L
TERMINAL_BW [2]: 193.4 g
APTT [2]: 28.2 s
Bas [2]: 0%
Eos [2]: 1%
Fbg [2]: 185.7 mg/dL
Hb [2]: 13.6 g/dL
Ht [2]: 40.7%
Lym [2]: 56%
MCHC [2]: 33.3%
MCV [2]: 64.7 fL
Mono [2]: 1%
Neu [2]: 41.3%
PT [2]: 17.8 s
Plat [2]: 56 x10_4/uL
RBC [2]: 629.3 x10_4/ul
Ret [2]: 9.3%
WBC [2]: 34.8 x10_2/uL
KIDNEY_L [2]: 0.9 g
KIDNEY_R [2]: 0.9 g
KIDNEY_TOTAL [2]: 1.9 g
LIVER [2]: 8 g
ALP [2]: 1219 IU/L
ALT [2]: 143.7 IU/L
AST [2]: 272 IU/L
BUN [2]: 18.3 mg/dL
CRE [2]: 0.2 mg/dL
Ca [2]: 9.7 mg/dL
DBIL [2]: 0.1 mg/dL
GLC [2]: 140 mg/dL
IP [2]: 9.9 mg/dL
K [2]: 4 meq/L
LDH [2]: 1262.7 IU/L
Na [2]: 139.7 meq/L
PL [2]: 163.3 mg/dL
RALB [2]: 2.2 g/dL
TBIL [2]: 0.4 mg/dL
TC [2]: 103.7 mg/dL
TG [2]: 65.3 mg/dL
TP [2]: 5 g/dL
gamma-GTP [2]: 2.3 IU/L
TERMINAL_BW [3]: 188.8 g
APTT [3]: 22.1 s
Bas [3]: 0%
Eos [3]: 1%
Fbg [3]: 248.7 mg/dL
Hb [3]: 13.8 g/dL
Lym [3]: 51.3%
MCV [3]: 64.7 fL
Mono [3]: 1%
Neu [3]: 46.7%
Plat [3]: 59.9 x10_4/uL
RBC [3]: 643.7 x10_4/ul
Ret [3]: 8.7%
WBC [3]: 71 x10_2/uL
KIDNEY_L [3]: 0.9 g
KIDNEY_R [3]: 0.9 g
KIDNEY_TOTAL [3]: 1.9 g
LIVER [3]: 7.2 g
ALP [3]: 1291 IU/L
ALT [3]: 126.3 IU/L
AST [3]: 246.7 IU/L
BUN [3]: 16.3 mg/dL
CRE [3]: 0.2 mg/dL
Ca [3]: 10 mg/dL
DBIL [3]: 0.0533 mg/dL
GLC [3]: 139.3 mg/dL
IP [3]: 9.6 mg/dL
K [3]: 4.1 meq/L
LDH [3]: 1570.3 IU/L
Na [3]: 140.3 meq/L
PL [3]: 166.3 mg/dL
RALB [3]: 2.4 g/dL
TBIL [3]: 0.2 mg/dL
TC [3]: 119 mg/dL
TG [3]: 38 mg/dL
TP [3]: 5.4 g/dL
gamma-GTP [3]: 4.3 IU/L
TERMINAL_BW [4]: 189.4 g
APTT [4]: 19.4 s
Bas [4]: 0%
Eos [4]: 1%
Fbg [4]: 519 mg/dL
Hb [4]: 13.6 g/dL
Lym [4]: 61.7%
MCH [4]: 20.6 pg
MCHC [4]: 32.9%
Mono [4]: 2.7%
Neu [4]: 33.3%
PT [4]: 14.6 s
Plat [4]: 53.7 x10_4/uL
RBC [4]: 660.3 x10_4/ul
Ret [4]: 6.6%
WBC [4]: 82.4 x10_2/uL
KIDNEY_L [4]: 0.9 g
KIDNEY_R [4]: 0.9 g
KIDNEY_TOTAL [4]: 1.8 g
LIVER [4]: 9.2 g
ALP [4]: 1258 IU/L
ALT [4]: 36.7 IU/L
AST [4]: 71 IU/L
BUN [4]: 18.3 mg/dL
CRE [4]: 0.2 mg/dL
DBIL [4]: 0.01 mg/dL
GLC [4]: 181.3 mg/dL
IP [4]: 9.2 mg/dL
K [4]: 4.7 meq/L
LDH [4]: 64 IU/L
PL [4]: 176 mg/dL
RALB [4]: 2.7 g/dL
TBIL [4]: 0.07 mg/dL
TC [4]: 107 mg/dL
TG [4]: 47.7 mg/dL
TP [4]: 5.9 g/dL
gamma-GTP [4]: 1.7 IU/L
TERMINAL_BW [5]: 197.5 g
Bas [5]: 0.3%
Eos [5]: 0%
Fbg [5]: 186.3 mg/dL
Ht [5]: 40.6%
Lym [5]: 62.3%
MCV [5]: 66.6 fL
Mono [5]: 2%
Neu [5]: 34.7%
PT [5]: 17.1 s
Plat [5]: 83.4 x10_4/uL
RBC [5]: 608.7 x10_4/ul
Ret [5]: 9.7%
WBC [5]: 42.6 x10_2/uL
KIDNEY_L [5]: 0.9 g
KIDNEY_R [5]: 0.9 g
KIDNEY_TOTAL [5]: 1.9 g
LIVER [5]: 9.2 g
ALP [5]: 1326.7 IU/L
ALT [5]: 48 IU/L
AST [5]: 122.3 IU/L
BUN [5]: 15 mg/dL
CRE [5]: 0.2 mg/dL
Ca [5]: 10 mg/dL
DBIL [5]: 0.0233 mg/dL
GLC [5]: 148.7 mg/dL
K [5]: 4.1 meq/L
LDH [5]: 229.3 IU/L
RALB [5]: 2.2 g/dL
TBIL [5]: 0.0667 mg/dL
TC [5]: 78.3 mg/dL
TG [5]: 143 mg/dL
TP [5]: 4.8 g/dL
gamma-GTP [5]: 1.7 IU/L
TERMINAL_BW [6]: 192.5 g
APTT [6]: 25.9 s
Bas [6]: 0%
Eos [6]: 1%
Fbg [6]: 158.3 mg/dL
Lym [6]: 65.3%
MCHC [6]: 32.8%
MCV [6]: 64.5 fL
Mono [6]: 1%
Neu [6]: 31.7%
PT [6]: 18.2 s
Plat [6]: 47.4 x10_4/uL
RBC [6]: 627.3 x10_4/ul
Ret [6]: 8.9%
WBC [6]: 21.1 x10_2/uL
KIDNEY_L [6]: 1 g
KIDNEY_R [6]: 0.9 g
KIDNEY_TOTAL [6]: 1.9 g
LIVER [6]: 7.6 g
ALP [6]: 1321.7 IU/L
ALT [6]: 378.7 IU/L
AST [6]: 499.3 IU/L
BUN [6]: 23.3 mg/dL
CRE [6]: 0.2 mg/dL
Ca [6]: 9.5 mg/dL
DBIL [6]: 0.2 mg/dL
GLC [6]: 124.3 mg/dL
IP [6]: 10.4 mg/dL
K [6]: 4.4 meq/L
LDH [6]: 2239.3 IU/L
Na [6]: 140.3 meq/L
PL [6]: 156.7 mg/dL
RALB [6]: 2.2 g/dL
TBIL [6]: 0.3 mg/dL
TC [6]: 90 mg/dL
TG [6]: 87 mg/dL
TP [6]: 4.9 g/dL
gamma-GTP [6]: 2.7 IU/L
TERMINAL_BW [7]: 188.4 g
APTT [7]: 25 s
Bas [7]: 0%
Eos [7]: 1%
Fbg [7]: 180.7 mg/dL
Ht [7]: 41.4%
Lym [7]: 56%
MCHC [7]: 32.7%
MCV [7]: 64.7 fL
Mono [7]: 1%
Neu [7]: 42%
PT [7]: 17.9 s
Plat [7]: 27.3 x10_4/uL
RBC [7]: 641 x10_4/ul
Ret [7]: 8.6%
WBC [7]: 48.1 x10_2/uL
KIDNEY_L [7]: 0.9 g
KIDNEY_R [7]: 0.9 g
KIDNEY_TOTAL [7]: 1.9 g
LIVER [7]: 7.4 g
ALP [7]: 1439.3 IU/L
ALT [7]: 320.3 IU/L
AST [7]: 534.3 IU/L
BUN [7]: 29.7 mg/dL
CRE [7]: 0.2 mg/dL
Ca [7]: 9.5 mg/dL
DBIL [7]: 0.2 mg/dL
GLC [7]: 116 mg/dL
K [7]: 4.6 meq/L
LDH [7]: 1843.3 IU/L
Na [7]: 138.3 meq/L
PL [7]: 169.7 mg/dL
RALB [7]: 2.1 g/dL
TBIL [7]: 0.4 mg/dL
TC [7]: 115.7 mg/dL
TG [7]: 117.7 mg/dL
TP [7]: 4.8 g/dL
gamma-GTP [7]: 4 IU/L
TERMINAL_BW [8]: 191.8 g
APTT [8]: 23.8 s
Bas [8]: 0.7%
Eos [8]: 1%
Fbg [8]: 336 mg/dL
Hb [8]: 12.1 g/dL
Ht [8]: 37.4%
Lym [8]: 55.3%
MCHC [8]: 32.4%
MCV [8]: 64 fL
Mono [8]: 2%
Neu [8]: 40.7%
PT [8]: 15.3 s
Plat [8]: 41.9 x10_4/uL
RBC [8]: 583.3 x10_4/ul
Ret [8]: 7.7%
WBC [8]: 99.6 x10_2/uL
KIDNEY_L [8]: 0.9 g
KIDNEY_R [8]: 1 g
KIDNEY_TOTAL [8]: 1.9 g
LIVER [8]: 8.3 g
ALP [8]: 1299 IU/L
ALT [8]: 330.3 IU/L
AST [8]: 740.3 IU/L
BUN [8]: 31.7 mg/dL
CRE [8]: 0.2 mg/dL
DBIL [8]: 0.06 mg/dL
GLC [8]: 139 mg/dL
IP [8]: 9.4 mg/dL
K [8]: 4.4 meq/L
LDH [8]: 271.7 IU/L
RALB [8]: 2.2 g/dL
TBIL [8]: 0.2 mg/dL
TC [8]: 93.3 mg/dL
TG [8]: 45.3 mg/dL
TP [8]: 4.9 g/dL
gamma-GTP [8]: 6.7 IU/L
